Data as given in ChEMBL document CHEMBL4396866, “Discovery and Structure-Based Optimization of Next-Generation Reversible Methionine Aminopeptidase-2 (MetAP-2) Inhibitors” (J Med Chem, 2019).
≈ marks a conversion by molar mass, not a printed value.

How the values were obtained:
[1] = Drug metabolism in DMSO assessed as oxidation by measuring rac-3-Hydroxy-2-oxo-1-phenylpyrrolidine-3-carboxylic Acid (2-Thiophen-2-ylethyl)amide formation incubated at high temperature under stirring condition for 2 days
[2] = Drug metabolism in DMSO assessed as oxidation by measuring rac-3-Hydroxy-2-oxo-1-phenylpyrrolidine-3-carboxylic Acid (2-Thiophen-2-ylethyl)amide formation measured after 2 years
[3] = Stability in human liver microsomes assessed per mg protein; format: ADME, Microsome
[4] = Stability in mouse liver microsomes assessed per mg protein; format: ADME, Microsome
[5] = Volume of distribution at steady state in mouse at 0.2 mg/kg, iv; format: ADME, organism-based; settings: in vivo, read-out: Vdss
[6] = Passive permeability across apical to basal side in human Caco2 cells; format: ADME, cell-based; settings: Caco-2, read-out: permeability
U-87 MG = experiment: Antitumor activity against human U87MG cells xenografted in po dosed CD-1 nude mouse assessed as tumor growth inhibition administered once daily for 12 days; format: functional, organism-based; settings: U-87MG ATCC
[7] = Oral bioavailability in mouse at 0.5 mg/kg; format: ADME, organism-based; settings: in vivo
[8] = Lipophilicity, log D of the compound at pH 7.4; format: physicochemical; settings: buffer
[9] = Solubility of the compound in FaSSIF; format: physicochemical
[10] = Toxicity in CD-1 nude mouse xenografted with human U87MG cells assessed as body weight loss at 5 to 20 mg/kg, po administered once daily for 12 days measured during compound dosing; format: organism-based; settings: in vivo, 288 h
[11] = Dissociation constant, pKa of compound; format: physicochemical
[12] = Solubility of the compound in FeSSIF; format: physicochemical
[13] = Half life in mouse at 0.2 mg/kg, iv; format: ADME, organism-based; settings: in vivo
[14] = Oral bioavailability in mouse at 50 mg/kg; format: ADME, organism-based; settings: in vivo
[15] = Toxicity in CD-1 nude mouse xenografted with human U87MG cells at 5 to 20 mg/kg, po administered once daily for 12 days measured during compound dosing; format: organism-based; settings: in vivo, 288 h
[16] = Clearance in mouse at 0.2 mg/kg, iv; format: ADME, organism-based; settings: in vivo

Stability [3] | Stability [4] | Vd [5] | Papp A→B [6] | bioavailability [7] | logD [8] | solubility [9] | pKa [11] | solubility [12] | half-life [13] | bioavailability [14] | clearance [16] | SMILES | Drug metabolism [1] | Drug metabolism [2] | TGI (U-87 MG) | Activity [10] | Activity [15]
– | – | – | – | – | – | – | – | – | – | – | – | O=C(NCCc1cccs1)C1CCN(c2ccccc2)C1=O (configuration not stated) | Metabolite not detected | Metabolite detected | – | – | –
< 10 µL/min | < 10 µL/min | 0.78 L/kg | 16 ×10⁻⁶ cm/s | 35% | 2 | 158 µg/mL (≈ 366 µM) | 11 | 334 µg/mL (≈ 773 µM) | 3 h | 100% | 3 mL/min/kg | O=C1CCc2cc(N3CC[C@](O)(C(=O)NCc4cc(F)cc(Cl)c4)C3=O)ccc2N1 | – | – | Dose-dependent effect | Non-Toxic | Non-Toxic
